The results in this text go back to patent publication US20130131321A1, “LIGANDS FOR ANTIBODY AND Fc-FUSION PROTEIN PURIFICATION BY AFFINITY CHROMATOGRAPHY” (GRAFFINITY PHARMACEUTICALS GMBH, priority 2010, published 2013).

Assay [1] deals with T1, Bevacizumab (Homo sapiens, UniProt P01857).
T1 construct: fused on or other part: humanised anti-VEGF-A VH domain N-terminal of the gamma-1 constant region (engineered, no UniProt entry)
Kind of assay: Microtiter plate chromatography of resins, Bevacizumab whole IgG (bound, yield, selectivity). Type of assay: binding, humanized. As to conditions: for Bevacizumab IgG Bound (%): fraction of whole IgG Bevacizumab bound to resin; for Bevacizumab IgG Yield (%): mass of whole IgG Bevacizumab eluted / mass injected. As for the experimental part: (§1) Resins were assessed in packed mode by microtiter plate chromatography. For each column, approximately 30 μl of resin were transferred to a 384-well filter plate and sealed with appropriate top frits.
(§2) Columns were equilibrated with 6.7 column volumes (cv) of phosphate buffered saline (0.15 M NaCl, 20 mM sodium phosphate, pH 7.3; PBS) prior to injection. Either 3.3 cv of whole IgGs dissolved at 0.75 mg ml^−1, Fab or Fc fragments dissolved at 0.25 mg ml^−1 (all three in PBS) or host cell proteins (HCP) were injected onto columns. Antibody fragments of Bevacizumab (Fab and Fc) were prepared by cleavage of whole IgG with papain protease (3) according to the protocol of the manufacturer. […] Volumes transferred were spun through columns at 50 g for 1-2 min. During injection of samples, acceleration was reduced to 10 g and centrifugation time increased to 5-10 min. Effluent fractions were collected in 384-well plates and concentrations of protein analyzed by Bradford assay. Protein masses mi, mft and me (see below) were calculated as the product of fraction volume and measured protein concentration.
(§3) The fraction of ‘bound’ protein was calculated as the difference between the total mass of protein injected mi and the mass of protein detected in the flowthrough mft, divided by the total mass of protein injected.
(§4) The ‘yield’ of protein was calculated as the mass of protein eluted me, divided by the mass of protein injected mi.
(§5) The ‘selectivity’ of resins was calculated as the fraction of bound antibody BAb, divided by the fraction of bound host cell proteins BHCP.
(§6) the fraction of ‘bound’ protein and the ‘yield’ of protein were calculated for each resin based on data for whole IgG-antibodies. In the case of Bevacizumab fragments and host cell proteins, only the fraction of ‘bound’ protein is given. Selectivity of resins was calculated from data for Bevacizumab Whole IgG and host cell proteins. Due to limited experimental precision, selectivity was truncated beyond values of 10.

For assay [2], the system named is Bevacizumab. The assay is described as above. Type of assay: binding, humanized. As to conditions: for selectivity index: fraction of bound Bevacizumab whole IgG divided by fraction of bound HCP, truncated beyond 10. As for the experimental part:
as §1, §2, §3, §4, §5, §6

In the next assay the test system is Tocilizumab. Kind of assay: Microtiter plate chromatography of resins, Tocilizumab (bound, yield). Type of assay: binding, humanized. As for the experimental part: as §1, §2, §3, §4, §6
Another assay relates to Palivizumab. Nature of the assay: Microtiter plate chromatography of resins, Palivizumab (bound, yield). Type of assay: binding, humanized. As for the experimental part: as §1, §2, §3, §4, §6
Assay [3] has as its system human poly-IgG (h-poly-IgG). Kind of assay: Microtiter plate chromatography of resins, human poly-IgG (bound, yield). Type of assay: binding. As for the experimental part:
as §1, §2, §3, §4, §6

Another assay concerns host cell proteins (HCP). Nature of the assay: Microtiter plate chromatography of resins, host cell proteins (bound). As to conditions: host cell proteins. Type of assay: binding, CHO. As for the experimental part: Flowthrough from protein A chromatography (referred to as host cell proteins) was derived from the supernatant of antibody-producing CHO cell culture in serum-free medium.
as §1, §2, §3, §6

Turning to `COc1ccc(NC(=O)c2cc(-c3ccco3)n(C)n2)cc1C(=O)N(C)CCCN` [Ligand L28, 5-[5-(2-Furyl)-1-methylpyrazol-3-yl]carboxamido-2-methoxybenzoic acid N-(3-aminopropyl)-N-methylamide], on Bevacizumab [1], the “Bevacizumab IgG Bound (%)” value was 100% and the “Bevacizumab IgG Yield (%)” value is reported as 81%. For the same compound, in the assay with Bevacizumab [2], the Selectivity is 2.9. In the assay on Tocilizumab, the “Tocilizumab Bound (%)” value is 63% and the “Tocilizumab Yield (%)” value worked out at 61%. Moreover, in the assay with Palivizumab, the “Palivizumab Bound (%)” value stood at 55% and the “Palivizumab Yield (%)” value came to 50%. For the same compound, in assay [3], the “h-poly-IgG Bound (%)” value came to 58% and the “h-poly-IgG Yield (%)” value is given as 44%. In the assay with host cell proteins (HCP), the “HCP Bound (%)” value turned out to be 35%.
Turning to `CCOc1ccc(NC(=O)c2cc(-c3ccco3)n(C)n2)cc1C(=O)NCCCN` [Ligand L29, 5-[5-(2-Furyl)-1-methylpyrazol-3-yl]carboxamido-2-ethoxybenzoic acid N-(3-aminopropyl)amide], on Bevacizumab [1], the “Bevacizumab IgG Bound (%)” value came out at 100% and the “Bevacizumab IgG Yield (%)” value came to 84%. Further, the Selectivity with Bevacizumab [2] was found to be 2.4. Further, in the assay with Tocilizumab, the “Tocilizumab Bound (%)” value worked out at 100% and the “Tocilizumab Yield (%)” value is listed as 96%. For the same compound, in the assay with Palivizumab, the “Palivizumab Bound (%)” value is 100% and the “Palivizumab Yield (%)” value is 88%. In assay [3], the “h-poly-IgG Bound (%)” value amounted to 95% and the “h-poly-IgG Yield (%)” value worked out at 70%. Moreover, the “HCP Bound (%)” value in the assay with host cell proteins (HCP) was 43%.
On to `Cn1nc(C(=O)Nc2ccc(O)c(C(=O)NCCCN)c2)cc1-c1ccco1` [Ligand L30, 5-[5-(2-Furyl)-1-methylpyrazol-3-yl]carboxamido-2-hydroxybenzoic acid N-(3-aminopropyl)amide], for which, on Bevacizumab [1], the “Bevacizumab IgG Bound (%)” value turned out to be 100% and the “Bevacizumab IgG Yield (%)” value was 93%. Further, in the assay on Bevacizumab [2], the Selectivity stood at 2.4. In addition, in the assay on Tocilizumab, the “Tocilizumab Bound (%)” value is 83% and the “Tocilizumab Yield (%)” value amounted to 79%. Further, in the assay with Palivizumab, the “Palivizumab Bound (%)” value is on record as 68% and the “Palivizumab Yield (%)” value was determined as 66%. Further, in assay [3], the “h-poly-IgG Bound (%)” value came to 74% and the “h-poly-IgG Yield (%)” value is 53%. The “HCP Bound (%)” value with host cell proteins (HCP) was determined as 42%.
For `COc1ccc(NC(=O)c2onc3ccccc23)cc1C(=O)NCCCN` [Ligand L31, 5-(Benzo[c]isoxazol-3-yl)carboxamido-2-methoxybenzoic acid N-(3-aminopropyl)amide], at Bevacizumab [1], the “Bevacizumab IgG Bound (%)” value turned out to be 100% and the “Bevacizumab IgG Yield (%)” value is recorded as 96%. In the assay with Bevacizumab [2], this compound gave a Selectivity of 4.4 and a selectivity index of 4.4. In addition, in the assay with Tocilizumab, the “Tocilizumab Bound (%)” value amounted to 100% and the “Tocilizumab Yield (%)” value is recorded as 98%. Moreover, in the assay on Palivizumab, the “Palivizumab Bound (%)” value is reported as 99% and the “Palivizumab Yield (%)” value is 94%. Also, in assay [3], the “h-poly-IgG Bound (%)” value came to 95% and the “h-poly-IgG Yield (%)” value is 74%. Also, the “HCP Bound (%)” value with host cell proteins (HCP) worked out at 23%.
As to `COc1ccc(NC(=O)c2occ3ccccc23)cc1C(=O)NCCCN` [Ligand L32, 5-(Benzo[c]furan-1-yl)carboxamido-2-methoxybenzoic acid N-(3-aminopropyl)amide], at Bevacizumab [1], the “Bevacizumab IgG Bound (%)” value stood at 100% and the “Bevacizumab IgG Yield (%)” value turned out to be 87%. The compound further came in with a Selectivity in the assay on Bevacizumab [2] of 2.0. Also, in the assay on Tocilizumab, the “Tocilizumab Bound (%)” value was 100% and the “Tocilizumab Yield (%)” value was 95%. In the assay on Palivizumab, the “Palivizumab Bound (%)” value was 100% and the “Palivizumab Yield (%)” value came to 95%. In assay [3], the “h-poly-IgG Bound (%)” value was found to be 95% and the “h-poly-IgG Yield (%)” value came out at 74%. Further, the “HCP Bound (%)” value with host cell proteins (HCP) came to 49%.
Take `COc1ccc(NC(=O)c2cc(C)n(C)n2)cc1C(=O)NCCCN` [Ligand L33, 5-(1,5-Dimethylpyrazol-3-yl)carboxamido-2-methoxybenzoic acid N-(3-aminopropyl)amide]: on Bevacizumab [1], the “Bevacizumab IgG Bound (%)” value came to 99% and the “Bevacizumab IgG Yield (%)” value turned out to be 83%. The compound also yielded a Selectivity with Bevacizumab [2] of 5.8. Also, in the assay with Tocilizumab, the “Tocilizumab Bound (%)” value was 48% and the “Tocilizumab Yield (%)” value was determined as 51%. For the same compound, in the assay on Palivizumab, the “Palivizumab Bound (%)” value came to 33% and the “Palivizumab Yield (%)” value worked out at 31%. In assay [3], the “h-poly-IgG Bound (%)” value is 51% and the “h-poly-IgG Yield (%)” value is 39%. The “HCP Bound (%)” value in the assay with host cell proteins (HCP) worked out at 17%.
In the case of `COc1ccc(NC(=O)c2cc(C(F)(F)F)n(C)n2)cc1C(=O)NCCCN` [Ligand L34, 2-Methoxy-5-[1-methyl-5-(trifluoromethyl)pyrazol-3-yl]carboxamidobenzoic acid N-(3-aminopropyl)amide], at Bevacizumab [1], the “Bevacizumab IgG Bound (%)” value came to 100% and the “Bevacizumab IgG Yield (%)” value is on record as 89%. This compound displayed a Selectivity in the assay with Bevacizumab [2] of 2.6. Also, in the assay with Tocilizumab, the “Tocilizumab Bound (%)” value amounted to 85% and the “Tocilizumab Yield (%)” value is on record as 80%. Moreover, in the assay with Palivizumab, the “Palivizumab Bound (%)” value is on record as 73% and the “Palivizumab Yield (%)” value was 72%. Moreover, in assay [3], the “h-poly-IgG Bound (%)” value is on record as 78% and the “h-poly-IgG Yield (%)” value was 61%. In addition, the “HCP Bound (%)” value in the assay on host cell proteins (HCP) is 39%.
Consider `COc1ccc(NC(=O)c2nccc3ccccc23)cc1C(=O)NCCCN` [Ligand L35, 5-(1-Isoquinolinyl)carboxamido-2-methoxybenzoic acid N-(3-aminopropyl)amide], for which, on Bevacizumab [1], the “Bevacizumab IgG Bound (%)” value was found to be 100% and the “Bevacizumab IgG Yield (%)” value was found to be 96%. The same compound yielded a Selectivity in the assay on Bevacizumab [2] of 2.0. Besides, in the assay with Tocilizumab, the “Tocilizumab Bound (%)” value is 100% and the “Tocilizumab Yield (%)” value is recorded as 92%. For the same compound, in the assay with Palivizumab, the “Palivizumab Bound (%)” value was 100% and the “Palivizumab Yield (%)” value was found to be 95%. In assay [3], the “h-poly-IgG Bound (%)” value is given as 95% and the “h-poly-IgG Yield (%)” value was 76%. The “HCP Bound (%)” value with host cell proteins (HCP) is 51%.
With `COc1ccc(NC(=O)c2n[nH]c3ccccc23)cc1C(=O)NCCCN` [Ligand L36, 5-(Indazol-3-yl)carboxamido-2-methoxybenzoic acid N-(3-aminopropyl)amide], on Bevacizumab [1], the “Bevacizumab IgG Bound (%)” value amounted to 100% and the “Bevacizumab IgG Yield (%)” value was 100%. In the assay on Bevacizumab [2], this compound returned a Selectivity of 1.9. Besides, in the assay on Tocilizumab, the “Tocilizumab Bound (%)” value was 100% and the “Tocilizumab Yield (%)” value was 95%. Also, in the assay with Palivizumab, the “Palivizumab Bound (%)” value worked out at 100% and the “Palivizumab Yield (%)” value was 100%. Besides, in assay [3], the “h-poly-IgG Bound (%)” value was found to be 95% and the “h-poly-IgG Yield (%)” value amounted to 77%. Besides, in the assay on host cell proteins (HCP), the “HCP Bound (%)” value is recorded as 54%.
Take `COc1ccc(NC(=O)c2cn3ccsc3n2)cc1C(=O)NCCCN` [Ligand L37, 5-(Imidazo[2,1-b]thiazol-6-yl)carboxamido-2-methoxybenzoic acid N-(3-aminopropyl)amide]: on Bevacizumab [1], the “Bevacizumab IgG Bound (%)” value is on record as 100% and the “Bevacizumab IgG Yield (%)” value came out at 92%. In the assay with Bevacizumab [2], this compound displayed a Selectivity of 3.4 and a selectivity index of 3.4. Moreover, in the assay on Tocilizumab, the “Tocilizumab Bound (%)” value was determined as 99% and the “Tocilizumab Yield (%)” value worked out at 95%. For the same compound, in the assay with Palivizumab, the “Palivizumab Bound (%)” value was determined as 92% and the “Palivizumab Yield (%)” value is listed as 87%. For the same compound, in assay [3], the “h-poly-IgG Bound (%)” value is listed as 94% and the “h-poly-IgG Yield (%)” value amounted to 70%. In the assay on host cell proteins (HCP), the “HCP Bound (%)” value stood at 29%.
For the compound `CCn1nc(C(=O)Nc2ccc(OC)c(C(=O)NCCCN)c2)c2ccccc21` [Ligand L38, 5-(1-Ethylindazol-3-ylcarboxamido)-2-methoxybenzoic acid (3-amino-1-propyl)amide], on Bevacizumab [1], the “Bevacizumab IgG Bound (%)” value came to 100% and the “Bevacizumab IgG Yield (%)” value was found to be 100%. This compound registered a Selectivity with Bevacizumab [2] of 2.2. Further, in the assay with Tocilizumab, the “Tocilizumab Bound (%)” value was 100% and the “Tocilizumab Yield (%)” value came out at 99%. Moreover, in the assay on Palivizumab, the “Palivizumab Bound (%)” value amounted to 91% and the “Palivizumab Yield (%)” value stood at 79%. In assay [3], the “h-poly-IgG Bound (%)” value came to 100% and the “h-poly-IgG Yield (%)” value was found to be 99%. For the same compound, the “HCP Bound (%)” value in the assay on host cell proteins (HCP) stood at 45%.
For `COc1ccc(C(=O)Nc2nn(C)c3ccccc23)cc1C(=O)NCCCN` [Ligand L39, 5-[N-(1-Methylindazol-3-yl)carbamoyl]-2-methoxybenzoic acid (3-amino-1-propyl)amide], on Bevacizumab [1], the “Bevacizumab IgG Bound (%)” value worked out at 100% and the “Bevacizumab IgG Yield (%)” value stood at 100%. The Selectivity in the assay with Bevacizumab [2] is reported as 2.9. Besides, in the assay on Tocilizumab, the “Tocilizumab Bound (%)” value is listed as 100% and the “Tocilizumab Yield (%)” value is listed as 100%. In addition, in the assay with Palivizumab, the “Palivizumab Bound (%)” value is 100% and the “Palivizumab Yield (%)” value is 100%. In assay [3], the “h-poly-IgG Bound (%)” value amounted to 100% and the “h-poly-IgG Yield (%)” value is reported as 100%. In addition, the “HCP Bound (%)” value in the assay with host cell proteins (HCP) was 35%.
